Data published in US5902736A, “Process for the production of D-α-amino acids by hydrolysis of the corresponding N-carbamyl derivative” (priority 1992, dated 1999).

Each compound was assayed on Blastobacter sp. A 17 p-4 (assay: Promoters for the production of Blastobacter sp. A 17 p-4 decarbamylase). Details: 2 mM metal ion plus 0.15% (w/v) uracil in medium D, 4 days at 28° C.
Format: cell-based
Protocol: The strain was cultured at 28° C. for 3 days in the medium D (as defined in Example 4) additionally containing 0.15% (w/v) of a substance as listed in FIG. 7. Then, D-HPG was formed in the same way as in Example 4 but that the reaction temperature was 40° C., and quantitated by HPLC.
In order to examine the effects of metal ions on the enzyme productivity, the strain was cultured at 28° C. for 4 days in the medium D additionally containing 0.15% (w/v) of uracil and 2 mM a metal ion as listed in FIG. 8. It was found by quantitating D-HPG that ions such as Fe^2+, Fe^3+, Li^+, Cs^+, Be^2+, Mg^2+, Mn^2+, Co^2+ and Al^3+ increased the decarbamylase yield.

| SMILES | decarbamylase yield of Blastobacter sp. A 17 p-4, effect of metal ions |
| --- | --- |
| [Mg+2] [Mg^2+] | increased |
| [Co+2] [Co^2+] | increased |
| [Mn+2] [Mn^2+] | increased |
| [Cs+] [Cs^+] | increased |
| [Al+3] [Al^3+] | increased |
| [Fe+2] [Fe^2+] | increased |
| [Be+2] [Be^2+] | increased |
| [Li+] [Li^+] | increased |

Same assay, conditions: 0.15% (w/v) additive in medium D, 3 days at 28° C.; D-HPG formation at 40° C.

| SMILES | decarbamylase yield of Blastobacter sp. A 17 p-4 |
| --- | --- |
| O=C1CCNC(=O)N1 [dihydrouracil] | increased |
| O=c1cc[nH]c(=O)[nH]1 [uracil] | increased |
| NC(=O)NCCC(=O)O [β-Ureidopropionic acid] | increased |

These compounds were tested on decarbamylase of Comamonas sp. E 222 C (assay: Substrate specificity of decarbamylase, cells of Comamonas sp. E 222 C). Details: 1% (w/v) substrate, 200 mM potassium phosphate, cell suspension, 24 hours at 30° C.
Format: cell-based
Protocol: For the determination of substrate specificity of decarbamylase of Comamonas sp. E 222 C and Blastobacter sp. A 17 p-4, these strains were cultured at 28° C. in the medium C (as described in Example 2) for 1 day (E 222 C) and 7 days (A 17 p-4). Three ml of the culture medium was centrifuged to separate the microorganism, which was suspended in 300 μl of a substrate solution (200 mM potassium phosphate, 1% (w/v) a substrate as listed below) and incubated for 24 hours at 30° C. (E 222 C) or 50° C. (A 17 p-4).

| SMILES | Substrate conversion, Comamonas sp. E 222 c (conversion to amino acids) |
| --- | --- |
| CCCC(NC(N)=O)C(=O)O (racemic) [N-Carbamyl-DL-norvaline] | ++ (++: <50%) |
| NC(=O)N[C@@H](C(=O)O)c1ccccc1 [N-Carbamyl-D-phenylglycine] | +++ (+++: <80%) |
| CC(C)[C@@H](NC(N)=O)C(=O)O [N-Carbamyl-D-valine] | ++++ (++++: 100%) |
| CSCCC(NC(N)=O)C(=O)O (racemic) [N-Carbamyl-DL-methionine, N-carbamyl-DL-methionine] | ++ (++: <50%) |
| CC1NC(=O)NC1=O (racemic) [DL-5-Methylhydantoin] | - (-: 0%) |
| O=C1NC(=O)C(c2ccccc2)N1 (racemic) [DL-5-Phenylhydantoin] | - (-: 0%) |
| NC(=O)N[C@H](CO)C(=O)O [N-Carbamyl-D-serine] | + (+: <10%) |
| NC(=O)N[C@H](Cc1ccccc1)C(=O)O [N-Carbamyl-D-phenylalanine, N-carbamyl-D-phenylalanine] | ++++ (++++: 100%) |
| NC(=O)NC(CC(=O)O)C(=O)O (centres unmarked) [Ureidosuccinic acid] | - (-: 0%) |
| CCCCC(NC(N)=O)C(=O)O (racemic) [N-Carbamyl-DL-norleucine] | ++ (++: <50%) |
| CC(C)C[C@@H](NC(N)=O)C(=O)O [N-Carbamyl-D-leucine] | ++++ (++++: 100%) |
| O=C1NC(=O)C(c2ccc(O)cc2)N1 (racemic) [DL-5-p-Hydroxyphenylhydantoin] | - (-: 0%) |
| C[C@@H](NC(N)=O)C(=O)O [N-Carbamyl-D-alanine] | ++++ (++++: 100%) |
| NC(=O)N[C@@H](C(=O)O)c1ccc(O)cc1 [N-Carbamyl-D-p-hydroxyphenylglycine] | +++ (+++: <80%) |
| C[C@@H](O)[C@H](NC(N)=O)C(=O)O (racemic) [N-Carbamyl-DL-threonine] | + (+: <10%) |
| NC(=O)NCCC(=O)O [β-Ureidopropionic acid] | ++++ (++++: 100%) |
| CN(CC(=O)O)C(N)=O [N-Carbamyl-sarcosine] | - (-: 0%) |

Same assay, conditions: cell suspension, 24 hours at 30° C.

| SMILES | hydrolysis by Comamonas sp. E 222 C, in words |
| --- | --- |
| NC(=O)NCCC(=O)O [β-Ureidopropionic acid] | could hydrolize |

These compounds were tested on Comamonas sp. E 222 C (assay: Promoters for the production of Comamonas sp. E 222 C decarbamylase). Details: 0.15% (w/v) additive in medium D, 2 days at 28° C.; D-HPG from 35 mM C-D-HPG, 24 hours at 30° C.
Format: cell-based
Protocol: The strain was cultured in a nutrient medium D (1 g/l KH2 PO4, 1 g/l K2 HPO4, 0.3 g/l MgSO4 ·7H2 O, 3 g/l yeast extract, 3 g/l meat extract, 10 g/l glycerol, 2 g/l polypeptone; pH 7.0) for 2 days at 28° C. The culture medium additionally contained a substance as listed in FIG. 2 in a concentration of 0.15% (w/v).
One ml of the culture medium was centrifuged to collect the microorganism, which was suspended in 100 μl of a substrate solution (35 mM C-D-HPG, 200 mM potassium phosphate; pH 7.0). After 24 hours at 30° C., D-HPG was quantitated by HPLC according to the procedure described in Example 2.

| SMILES | decarbamylase productivity of Comamonas sp. E 222 C |
| --- | --- |
| CSCCC(NC(N)=O)C(=O)O (racemic) [N-Carbamyl-DL-methionine, N-carbamyl-DL-methionine] | improved |
| NC(N)=O [urea] | improved |
| NC(=O)NCCC(=O)O [β-Ureidopropionic acid] | improved |
| N[C@@H](C(=O)O)c1ccccc1 [D-phenylglycine] | improved |

These compounds were tested on decarbamylase of Blastobacter sp. A 17 p-4 (assay: Substrate specificity of decarbamylase, cells of Blastobacter sp. A 17 p-4). Details: 1% (w/v) substrate, 200 mM potassium phosphate, cell suspension, 24 hours at 30° C.
Format: cell-based
Protocol: For the determination of substrate specificity of decarbamylase of Comamonas sp. E 222 C and Blastobacter sp. A 17 p-4, these strains were cultured at 28° C. in the medium C (as described in Example 2) for 1 day (E 222 C) and 7 days (A 17 p-4). […] (E 222 C) or 50° C. (A 17 p-4).

| SMILES | Substrate conversion, Blastobacter sp. A 17 p-4 (conversion to amino acids) |
| --- | --- |
| CCCC(NC(N)=O)C(=O)O (racemic) [N-Carbamyl-DL-norvaline] | ++ (++: <50%) |
| NC(=O)N[C@@H](C(=O)O)c1ccccc1 [N-Carbamyl-D-phenylglycine] | +++ (+++: <80%) |
| CC(C)[C@@H](NC(N)=O)C(=O)O [N-Carbamyl-D-valine] | +++ (+++: <80%) |
| CSCCC(NC(N)=O)C(=O)O (racemic) [N-Carbamyl-DL-methionine, N-carbamyl-DL-methionine] | ++ (++: <50%) |
| CC1NC(=O)NC1=O (racemic) [DL-5-Methylhydantoin] | ++ (++: <50%) |
| O=C1NC(=O)C(c2ccccc2)N1 (racemic) [DL-5-Phenylhydantoin] | ++ (++: <50%) |
| NC(=O)N[C@H](CO)C(=O)O [N-Carbamyl-D-serine] | - (-: 0%) |
| NC(=O)N[C@H](Cc1ccccc1)C(=O)O [N-Carbamyl-D-phenylalanine, N-carbamyl-D-phenylalanine] | +++ (+++: <80%) |
| NC(=O)NC(CC(=O)O)C(=O)O (centres unmarked) [Ureidosuccinic acid] | - (-: 0%) |
| CCCCC(NC(N)=O)C(=O)O (racemic) [N-Carbamyl-DL-norleucine] | ++ (++: <50%) |
| CC(C)C[C@@H](NC(N)=O)C(=O)O [N-Carbamyl-D-leucine] | +++ (+++: <80%) |
| O=C1NC(=O)C(c2ccc(O)cc2)N1 (racemic) [DL-5-p-Hydroxyphenylhydantoin] | ++ (++: <50%) |
| C[C@@H](NC(N)=O)C(=O)O [N-Carbamyl-D-alanine] | +++ (+++: <80%) |
| NC(=O)N[C@@H](C(=O)O)c1ccc(O)cc1 [N-Carbamyl-D-p-hydroxyphenylglycine] | ++ (++: <50%) |
| C[C@@H](O)[C@H](NC(N)=O)C(=O)O (racemic) [N-Carbamyl-DL-threonine] | - (-: 0%) |
| NC(=O)NCCC(=O)O [β-Ureidopropionic acid] | - (-: 0%) |
| CN(CC(=O)O)C(N)=O [N-Carbamyl-sarcosine] | - (-: 0%) |
